Laboratory results: patent US7297353B2, “Use of anemonin for treating aseptic inflammations” (priority 2000, dated 2007)

Legend:
[1] = system: murine spleens cells stimulated with LPS; test: B-cell proliferation, spleen cells stimulated with LPS ([3H]-thymidine uptake); type: cell-based, ICR mice; conditions: for [^3H]-TDRincorparation(CPM × 10^−3): LPS 10 μg/ml, 48 hrs
Protocol: Fresh spleen cells were obtained from ICR mice (male, 7-9 weeks old), 5×10^5 of spleen cells were cultured in 96-well flat plates with […] of RPMI 1640 media containing 10% FBS, 100 U/ml penicillin and 100 μg/ml streptomyin in a humidified, 37° C., 5% CO2 incubator for 48 hrs. The cultures were either unstimulated, or were stimulated with 5 μg/ml of ConA or 10 μg/ml of LPS to induce T cells or B cells proliferative responses respectively. The compounds were added in cultures with indicated concentrations to test their bioactivities. Profileration was assessed in terms of uptake of [^3H]-thymidine during 6-12 hours pulsing with 20 kBq [^3H]-thymidine/well, then the cells were harvested by a Basic 96 harvester, and counted in a 1540 MicroBeta Trilux (PerkinElmer Life Sciences).

[2] = system: IL-12(p40); test: Cytokine production from splenocytes, Sac stimulation, IL-12(p40) (ELISA); type: cell-based, murine; conditions: 24 h
Protocol: (§1) For splenocyte cytokine production assay, 5×10^6 cells per well were inoculated into a 24-well tissue culture plate with ConA (5 mg/L) or Sac (1:10000) stimulation. Different concentrations of Anemonin were added in a final volume of 2 ml. Cells were incubated at 37° C., 5% CO2 for 24 h and supernatants were harvested, IFN-γ, IL-10, IL12 (p40) and IL-2 in supernatants were measured by the sandwich enzyme-linked immunosorbent assay (ELISA) as specified by the manufacturer (BD Bioscience pharmingen, US). Concentrations of the cytokine productions were calculated based on standard curves obtained from serial dilutions of murine cytokines (r IFN-γ, rIL-10, rIL12, rIL-2). As shown in Tables C-3 and C-4, high-dose Anemonin (1-100 μg/ml) inhibited all kinds of cytokine release induced by ConA or Sac.

[3] = system: dimethylbenene-induced ear swelling; test: Acute ear edema of mice induced by dimethylbenene; type: in vivo; conditions: for Ear swellin: 50 μl on ear, two hours after dimethylbenene
Protocol: The mice were randomly divided into 5 groups. Thirty minutes and sixty minutes after applying dimethylbenene (50 μl) to the anterior and posterior surfaces of the right ear, 25% ethanol (50 μl), the linimene solutions of anemonin (0.05, 0.5, 5 mg/ml, 50 μl) and FAA (a positive control) were applied on the same ears of mice respectively. The left ear was considered as control. Two hours after dimethylbenene application, mice were killed and both ears were removed. Circular sections were taken, using a 9 mm-diameter borer, and weighed. The increase in weight caused by the irritant was measured by subtracting the weight of the untreated left ear section from that of the treated right ear section.

[4] = system: spleen cells; test: Cytotoxicity effect of anemonin (MTT assay); type: cell-based, ICR mice; conditions: for OD value: 48 h
Protocol: The cell viability was determined by using 3-(4,5-dimethylthiazol-2-yl)-2,5-Diphenyl-tetrazolium bromide (MTT) assay. In brief, fresh spleen cells were obtained from ICR mice (male, 7-9 weeks old), 5×10^5 of spleen cells were cultured in 96-well flat plates. The medium was contained various concentrations of anemonin. After incubation for up to 48 h, MTT solution (5 mg/m in saline) was added to the 96 plates and cells were allowed to incubate for 6 h at 37° C. After the medium had been removed 100 μl, the cell and dye crystals were solubilized by adding 100 μl 10% sodium dodecyl sulfate (SDS), and then absorption was measured at 570 nm with a model 550-microplate reader (Bio-Rad).

[5] = system: IL-2; test: Cytokine production from splenocytes, ConA stimulation, IL-2 (ELISA); type: cell-based, murine; conditions: 24 h
Protocol: as §1

`O=C1C=CC2(CCC23C=CC(=O)O3)O1` (stereo not shown) [Anemonin, anemonin] was tested, and the “[^3H]-TDRincorparation(CPM × 10^−3)” value ([1]; 0.001 μg/ml) was 52.0 ± 2.27 CPM × 10^−3, the “[^3H]-TDRincorparation(CPM × 10^−3)” value ([1]; 0.01 μg/ml) was 47.2 ± 3.41 CPM × 10^−3 and the “[^3H]-TDRincorparation(CPM × 10^−3)” value ([1]; 0.1 μg/ml) was 47.5 ± 3.60 CPM × 10^−3. The “[^3H]-TDRincorparation(CPM × 10^−3)” value ([1]; 1 μg/ml) was 34.4 ± 2.41 CPM × 10^−3, the “[^3H]-TDRincorparation(CPM × 10^−3)” value ([1]; 10 μg/ml) was 0.11 ± 0.15 CPM × 10^−3 and the “[^3H]-TDRincorparation(CPM × 10^−3)” value ([1]; 100 μg/ml) was 0.17 ± 0.26 CPM × 10^−3. For the same compound, the B-cell proliferation ([1]; 1-100 μg/ml) was “significantly inhibited”, the “IL-12(p40)” value ([2]; 0.001 μg/ml) was 501 ± 6 pg/mL and the “IL-12(p40)” value ([2]; 0.01 μg/ml) was 446 ± 0 pg/mL. The “IL-12(p40)” value ([2]; 0.1 μg/ml) was 444 ± 3 pg/mL, the “IL-12(p40)” value ([2]; 1 μg/ml) was 293 ± 0 pg/mL and the “IL-12(p40)” value ([2]; 10 μg/ml) was 86 ± 6 pg/mL. The “IL-12(p40)” value ([2]; 100 μg/ml) was 72 ± 4 pg/mL, the “Ear swellin” value ([3]; 0.05 mg/ml liniment) was 18 ± 7 mg and the “Ear swellin” value ([3]; 0.5 mg/ml liniment) was 16 ± 4 mg. For the same compound, the “Ear swellin” value ([3]; 5 mg/ml liniment) was 12 ± 4 mg, the ear edema formation ([3]; 0.05-5 mg/ml applied) was “inhibited in a dose-dependent manner” and the “inhibitory effect on ear edema” value ([3]; doses of 2.5-25 μg/ear) was “statistically significant”. The cytotoxicity ([4]; 0.001 ug/ml) was “No”, the OD value ([4]; 0.001 ug/ml, 570 nM) was 0.196 ± 0.006 and the cytotoxicity ([4]; 0.01 ug/ml) was “No”. For the same compound, the OD value ([4]; 0.01 ug/ml) was 0.193 ± 0.007, the cytotoxicity ([4]; 0.1 ug/ml) was “No” and the OD value ([4]; 0.1 ug/ml) was 0.200 ± 0.011. The cytotoxicity ([4]; 1 ug/ml) was “Yes”, the OD value ([4]; 1 ug/ml) was 0.160 ± 0.004 and the cytotoxicity ([4]; 10 ug/ml) was “Yes”. The OD value ([4]; 10 ug/ml) was 0.135 ± 0.003, the cytotoxicity ([4]; 100 ug/ml) was “Yes” and the OD value ([4]; 100 ug/ml) was 0.118 ± 0.011. For the same compound, the cytotoxic effects ([4]; 1-100 μg/ml) was “cytotoxic effects in a dose-dependent manner”, the “IL-2” value ([5]; 0.001 μg/ml) was 482 ± 7 pg/mL and the “IL-2” value ([5]; 0.01 μg/ml) was 479 ± 5 pg/mL. For the same compound, the “IL-2” value ([5]; 0.1 μg/ml) was 461 ± 2 pg/mL, the “IL-2” value ([5]; 1 μg/ml) was 190 ± 2 pg/mL and the “IL-2” value ([5]; 10 μg/ml) was 22 ± 1 pg/mL. The “IL-2” value ([5]; 100 μg/ml) was 28 ± 1 pg/mL.
